Assays:
Mouse STC-1 cells = test: STC-1 GLP-1 assay; format: cell-based; settings: GLP-1 secretion, 2 h, coded A-C, read-out: Mouse STC-1 HTRF GLP-1 Activity (EC50)
Description: We evaluated Compounds of the present invention for their ability to induce GLP-1 production in mouse intestinal neuroendocrine tumor cells. Mouse STC-1 cells were cultured and maintained in high glucose DMEM (Sigma #5796) supplemented with 15% horse serum, 5% Fetal Bovine Serum (FBS), 1% penicillin/streptomycin, and 2 mM L-alanine L-glutamine (GlutaMax). Two days prior to analysis of GLP-1 secretion cells were harvested using Accutase (Sigma), spun down then resuspended in high glucose DMEM media containing 2 mM L-alanine L-glutamine (GlutaMax), 10% charcoal-dextran stripped FBS, and 50 μg/mL Gentamicin, at a density of 100,000 cells/mL. 100 μL of cell suspension was added to each well of a 96-well Poly-D-Lysine coated culture plate (Sigma; cat #2382493) and was incubated at 37° C. with 5% CO2.
Compounds were initially diluted in 100% DMSO (12-point serial dilution by half logs) in a 96-well plate and then were further diluted 1:500 in Hanks' Balanced Salt Solution (HBSS) containing protease inhibitor cocktail, DPP-IV inhibitor, and 0.1% fatty acid free bovine serum albumin. On the day of the experiment cells were washed once with HBSS. After wash, 100 μL of test compound was added to each well. The plate was incubated at 37° C. with 5% CO2 for 2 h. Supernatants were collected and GLP-1 secretion was measured using the Cisbio™ Active GLP-1 HTRF Assay Kit (Cisbio). Briefly, Anti-GLP-1-d2 conjugate and Anti-GLP-1 Terbium Cryptate conjugate stock solutions were prepared as per kit instructions. The two solutions were pre-mixed and 10 μL were transferred to a 384-well low volume plate (Greiner; cat #784075). 10 μL of collected supernatants were added to wells already containing the conjugate solution. The plate was covered and incubated at room temperature overnight. The plate was read on an Envision™ plate reader (Perkin Elmer).
In Table 34, EC50 values obtained from the STC-1 GLP-1 production assay for compounds of the present invention are summarized.

human TGR5 receptor = target: T1, human TGR5 receptor (Homo sapiens, UniProt Q8TDU6); test: Human TGR5 cAMP production assay; format: cell-based; settings: human TGR5, luminescent cAMP assay; coded A-D; read-out: Human TGR5 Lum. cAMP Activity (EC50)
T1 construct: host or cells: CHO-K1 (hTGR5-CHO cells)
T1 sequence (Q8TDU6 1-330): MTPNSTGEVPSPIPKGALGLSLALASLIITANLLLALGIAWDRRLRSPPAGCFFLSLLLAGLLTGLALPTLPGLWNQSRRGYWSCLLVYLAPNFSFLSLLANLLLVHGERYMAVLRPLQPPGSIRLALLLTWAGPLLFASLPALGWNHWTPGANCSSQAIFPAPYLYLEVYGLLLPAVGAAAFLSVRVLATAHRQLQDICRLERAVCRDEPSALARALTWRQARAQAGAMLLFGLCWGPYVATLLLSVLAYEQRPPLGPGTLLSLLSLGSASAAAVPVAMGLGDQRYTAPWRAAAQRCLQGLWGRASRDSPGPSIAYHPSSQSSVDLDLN
Summary of the method: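 Intracellular cAMP read by luminescent enzyme-complementation (XS+) after overnight development, following 1 h room-temperature compound treatment of hTGR5-CHO-K1 cells in IBMX plus anti-cAMP antibody. Compounds tested as half-log dilution series; EC50 derived.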

mouse TGR5 receptor = target: T2, mouse TGR5 receptor (Mus musculus, UniProt Q80SS6); test: Mouse TGR5 cAMP production assay (luminescent, DiscoveRx cAMP XS+); format: cell-based; settings: HEK293-EBNA cells overexpressing mouse TGR5, luminescent cAMP XS+; coded A-D; read-out: Mouse TGR5 Lum. cAMP Activity (EC50)
T2 construct: expressed in transfected cells; host or cells: HEK293-EBNA (293 c18, ATCC CRL10852), Hygromycin B selection
T2 sequence (Q80SS6 1-329): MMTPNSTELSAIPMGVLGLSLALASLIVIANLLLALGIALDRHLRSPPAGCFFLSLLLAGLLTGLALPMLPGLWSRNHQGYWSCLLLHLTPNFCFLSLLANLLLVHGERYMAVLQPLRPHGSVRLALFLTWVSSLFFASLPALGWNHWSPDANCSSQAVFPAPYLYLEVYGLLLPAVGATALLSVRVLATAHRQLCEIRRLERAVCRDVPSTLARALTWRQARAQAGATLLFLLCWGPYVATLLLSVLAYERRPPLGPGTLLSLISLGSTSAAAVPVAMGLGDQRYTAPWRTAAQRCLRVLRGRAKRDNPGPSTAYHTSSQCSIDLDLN
Summary of the method: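 HEK293-EBNA cells stably expressing mouse TGR5 were suspended in serum-free DMEM with 500 μM IBMX and preincubated 20 min with cAMP antibody. They were then exposed to half-log compound dilutions for 1 h at room temperature. cAMP measured by enzyme-fragment complementation luminescence after overnight incubation; EC50 derived.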

[1] = Absorption vs. first pass metabolism: Cmax with and without 1-aminobenzotriazole (ABT) pre-treatment; format: in vivo, mouse; settings: ICR mice, ABT 150 mg/kg p.o. 2 h before; compound 10 mg/kg p.o.
Description: Absorption Vs. First Pass Metabolism
In this study, the absorption was examined as compared to first pass metabolism of the compounds of the present invention. ICR mice (Hilltop) were pre-treated with 1-aminobenzotriazole (ABT), a nonselective inhibitor of cytochrome P450 enzymes to inhibit Cyp450-mediated degradation of the compounds in liver.
ABT was administered at 150 mg/kg in 5 mL/kg of 0.04% ethanol in 0.5% methyl cellulose (w/v) by oral gavage, 2 hours prior to test compound administration. The compounds 20AA and 20AC were administered by oral gavage at 10 mg/kg in 10 mL/kg of 20% PEG400/80% (0.5% (w/v) CMC containing 0.25% (v/v) Tween 80) (v/v), 2 hours after the ABT treatment. Blood was collected via orbital bleeding at predose, 0.25, 0.5, 1, 2, and 4 hours post-dose and the quantification of compound levels in plasma was accomplished by means of LC-MS/MS analysis as described in Example 59. Reference compound “Propranolol” that is known to be metabolized by Cyp450 was used as a positive control.
FIG. 4 depicts the Cmax (nM) of the compounds of the present invention with and without ABT pre-treatment.

Row | EC50 (Mouse STC-1 cells) [nM] | EC50 (human TGR5 receptor) [nM] | EC50 (mouse TGR5 receptor) [nM] | Cmax with versus without ABT pre-treatment [1] | Structure (SMILES)
1 | 1000 to 30000 | < 100 | 100 to 999 |  | COc1cnccc1-c1cccc(C(C)(C)NS(=O)(=O)c2ccccc2C(F)(F)F)c1 [Compound 2AV]
2 | 1000 to 30000 | < 100 | 100 to 999 |  | COc1cnccc1-c1cccc([C@H](C)NS(=O)(=O)c2ccccc2C(F)(F)F)c1 [Compound 2BQ]
3 | 100 to 999 | < 100 | 100 to 999 |  | CCOc1cnccc1-c1cccc(C(C)(C)NS(=O)(=O)c2ccccc2C(F)(F)F)c1 [Compound 8AC, N-(2-(3-(3-ethoxypyridin-4-yl)phenyl)propan-2-yl)-2-(trifluoromethyl)benzenesulfonamide]
4 | 1000 to 30000 | < 100 | < 100 |  | COc1cnccc1-c1cccc(C(C)(C)NS(=O)(=O)c2ccccc2[N+](=O)[O-])c1 [Compound 2AU]
5 |  |  |  | significantly higher | CC(C)NCC(O)COc1cccc2ccccc12 (stereo not shown) [propranolol, Propranolol, reference compound]

Reference: patent publication US11236055B2 (Venenum Biodesign, LLC, priority 2016, dated 2022)
